From DBAASP
In brackets after ≈: the same amount, converted by molar mass. Several values for one entry are separate records, joined by “and”; a condition that tells them apart may be missing. Identical values can stand only once.

What was measured:
Test in all cases: ≥ marks a high value that may be exact or a test limit, other limits are often not marked, values filed in µg/mL are converted to µM
Bacillus megaterium Bm11 = test system: Bacillus megaterium Bm11
Candida albicans = test system: Candida albicans
Citrobacter freundii = test system: Citrobacter freundii
Enterococcus faecium = test system: Enterococcus faecium
Escherichia coli ML-35 = test system: Escherichia coli ML-35
Escherichia coli = test system: Escherichia coli
Klebsiella pneumoniae = test system: Klebsiella pneumoniae
Micrococcus luteus = test system: Micrococcus luteus
[1] = test system: Pseudomonas aeruginosa ATCC 27853
Pseudomonas aeruginosa = test system: Pseudomonas aeruginosa
[2] = test system: Salmonella enterica subsp. enterica serovar Typhimurium ATCC 14028
[3] = test system: Staphylococcus aureus 710A
[4] = test system: Staphylococcus aureus LT1334
[5] = test system: Staphylococcus aureus LT1338
Staphylococcus aureus = test system: Staphylococcus aureus
[6] = test system: Staphylococcus epidermidis LT1324
[7] = test system: Staphylococcus haemolyticus
[8] = test system: Stenotrophomonas maltophilia
[9] = test system: Escherichia coli O18:K1:H7 Bort
Serratia marcescens = test system: Serratia marcescens
Streptococcus agalactiae = test system: Streptococcus agalactiae
Acinetobacter baumannii = test system: Acinetobacter baumannii
[10] = test system: Candida albicans ATCC 90028
[11] = test system: Cutibacterium acnes ATCC 11828
[12] = test system: Cutibacterium acnes ATCC 15725
[13] = test system: Cutibacterium acnes ATCC 18380
[14] = test system: Cutibacterium acnes ATCC 29903
[15] = test system: Cutibacterium acnes ATCC 31766
[16] = test system: Cutibacterium acnes ATCC 32548
[17] = test system: Cutibacterium acnes ATCC 33257
[18] = test system: Cutibacterium acnes ATCC 50247
[19] = test system: Escherichia coli ATCC 25726
[20] = test system: Staphylococcus aureus ATCC 25923
Enterococcus faecalis = test system: Enterococcus faecalis
Escherichia coli W3110 = test system: Escherichia coli W3110
[21] = test system: Pseudomonas aeruginosa PAK
[22] = test system: Streptococcus mutans UA159
[23] = test system: Streptococcus sanguinis NY101
[24] = test system: Streptococcus sobrinus ATCC 33478

In the case of `CC[C@H](C)[C@H](NC(=O)[C@@H](NC(=O)[C@H](CCCN=C(N)N)NC(=O)[C@H](C)NC(=O)[C@H](CC(C)C)NC(=O)[C@H](CCCCN)NC(=O)[C@H](CCCN=C(N)N)NC(=O)[C@H](C)NC(=O)[C@H](CC(C)C)NC(=O)[C@H](CCCN=C(N)N)NC(=O)CNC(=O)[C@H](Cc1ccccc1)NC(=O)[C@H](CCCCN)NC(=O)[C@H](CO)NC(=O)[C@H](CC(C)C)NC(=O)[C@H](CC(C)C)NC(=O)CN)C(C)C)C(=O)N1CCC[C@H]1C(=O)N[C@@H](CCCCN)C(=O)N[C@H](C(N)=O)C(C)C` [GLLSKFGRLARKLARVIPKV], the MIC (Bacillus megaterium Bm11) is reported as 2 µM (≈ 4.44 µg/mL), the MIC (Candida albicans) is reported as > 4 µM and the MIC (Citrobacter freundii) is reported as 2 µM (≈ 4.44 µg/mL). For the same molecule, the MIC (Enterococcus faecium) was 1.41 µM (≈ 3.14 µg/mL), the MIC (Escherichia coli ML-35) was 1 µM (≈ 2.22 µg/mL) and the MIC (Escherichia coli) was 1.41 µM (≈ 3.14 µg/mL). The MIC (Klebsiella pneumoniae) was 1 µM (≈ 2.22 µg/mL), the MIC (Micrococcus luteus) was 1 µM (≈ 2.22 µg/mL) and the MIC [1] was 4 µM (≈ 8.89 µg/mL). The MIC (Pseudomonas aeruginosa) was 2 µM (≈ 4.44 µg/mL), the MIC [2] was 5.66 µM (≈ 12.6 µg/mL) and the MIC [3] was 5.66 µM (≈ 12.6 µg/mL). For the same molecule, the MIC [4] was 3 µM (≈ 6.67 µg/mL), the MIC [5] was 4 µM (≈ 8.89 µg/mL) and the MIC (Staphylococcus aureus) was 2 µM and 2.45 µM. For the same molecule, the MIC [6] was 1.5 µM (≈ 3.33 µg/mL), the MIC [7] was 1.5 µM (≈ 3.33 µg/mL) and the MIC [8] was 1.22 µM (≈ 2.72 µg/mL).
`CC[C@H](C)[C@H](N)C(=O)N[C@@H](CC(C)C)C(=O)N[C@@H](CCCN=C(N)N)C(=O)N[C@@H](C)C(=O)N[C@@H](Cc1c[nH]c2ccccc12)C(=O)N[C@@H](CCCCN)C(=O)N[C@@H](CCCCN)C(=O)N[C@@H](Cc1ccc(O)cc1)C(=O)NCC(=O)N1CCC[C@H]1C(=O)N[C@H](C(=O)N[C@H](C(=O)N[C@H](C(=O)N1CCC[C@H]1C(=O)N[C@H](C(=O)N[C@H](C(=O)N[C@@H](CCCN=C(N)N)C(=O)N[C@H](C(N)=O)[C@@H](C)CC)[C@@H](C)CC)[C@@H](C)CC)C(C)C)[C@@H](C)CC)[C@@H](C)CC` [ILRAWKKYGPIIVPIIRI] gave an MIC (Enterococcus faecium) of 8 µM (≈ 17.2 µg/mL), an MIC [9] of 2 µM (≈ 4.3 µg/mL) and an MIC [1] of 8 µM (≈ 17.2 µg/mL). It also gave an MIC (Serratia marcescens) of 16 µM (≈ 34.4 µg/mL), an MIC (Staphylococcus aureus) of 8 µM (≈ 17.2 µg/mL) and an MIC (Streptococcus agalactiae) of 4 µM (≈ 8.6 µg/mL).
With `CC[C@H](C)[C@H](NC(=O)[C@H](CCCCN)NC(=O)[C@H](CC(C)C)NC(=O)[C@H](CC(C)C)NC(=O)[C@@H]1CCCN1C(=O)[C@H](CCCCN)NC(=O)[C@H](CC(C)C)NC(=O)[C@H](CC(C)C)NC(=O)CN)C(=O)N[C@@H](C)C(=O)N[C@@H](C)C(=O)N[C@@H](CCCCN)C(=O)N[C@H](C(=O)NCC(=O)N[C@@H](CO)C(=O)N[C@@H](CC(N)=O)C(=O)N[C@@H](CC(C)C)C(=O)N[C@@H](CC(C)C)C(N)=O)C(C)C` [GLLKPLLKIAAKVGSNLL] the MIC (Acinetobacter baumannii) was 2.23 µM (≈ 4.11 µg/mL), the MIC [10] was 25 µM (≈ 46.2 µg/mL) and the MIC [11] was 3 µM (≈ 5.54 µg/mL). The MIC [12] was 6 µM (≈ 11.1 µg/mL), the MIC [13] was 25 µM (≈ 46.2 µg/mL) and the MIC [14] was 25 µM (≈ 46.2 µg/mL). For the same molecule, the MIC [15] was 12.5 µM (≈ 23.1 µg/mL), the MIC [16] was 6 µM (≈ 11.1 µg/mL) and the MIC [17] was 6 µM (≈ 11.1 µg/mL). The MIC [18] was 12.5 µM (≈ 23.1 µg/mL), the MIC [19] was 12.5 µM (≈ 23.1 µg/mL) and the MIC [20] was 6 µM (≈ 11.1 µg/mL).
For `CC[C@H](C)[C@H](NC(=O)[C@H](Cc1ccccc1)NC(=O)[C@H](Cc1cnc[nH]1)NC(=O)[C@H](CCCCN)NC(=O)[C@@H](NC(=O)[C@H](Cc1ccccc1)NC(=O)[C@@H]1CCCN1C(=O)[C@H](CO)NC(=O)[C@@H]1CCCN1C(=O)[C@H](CO)NC(=O)[C@@H]1CCCN1C(=O)[C@H](Cc1ccccc1)NC(=O)[C@H](Cc1cnc[nH]1)NC(=O)[C@H](CC(C)C)NC(=O)[C@H](Cc1cnc[nH]1)NC(=O)[C@H](Cc1ccccc1)NC(=O)[C@H](Cc1cnc[nH]1)NC(=O)[C@@H](N)Cc1ccccc1)[C@@H](C)CC)C(=O)N[C@@H](Cc1cnc[nH]1)C(=O)N[C@@H](CCCN=C(N)N)C(=O)N[C@@H](Cc1ccccc1)C(N)=O` [FHFHLHFPSPSPFIKHFIHRF], the MIC (Enterococcus faecalis) was ≥ 93.4 µM, the MIC (Escherichia coli W3110) was 23.4 µM (≈ 62.5 µg/mL) and the MIC [21] was ≥ 46.7 µM. For the same molecule, the MIC (Staphylococcus aureus) was > 187 µM, the MIC [22] was 12 µM (≈ 32 µg/mL) and the MIC [23] was ≥ 46.7 µM. For the same molecule, the MIC [24] was ≥ 46.7 µM.
